Data set [1] has as its target T1, Glutamate receptor ionotropic, NMDA 1 (Rattus norvegicus, UniProt P35439). Nature of the data set: Affinity for glycine site of N-methyl-D-aspartate glutamate receptor determined by displacement of tritium labeled selective glycine antagonist [3H]- SM-18400. In kind it is functional.
For data set [2], the system named is Mus musculus. Nature of the data set: Number of mice protected from tonic seizures to that of number tested was determined when compound (3 mg/kg) was administered intravenously to 10 mice. In kind it is functional.
The species named for data set [3] is Mus musculus. Nature of the data set: Effective dose of compound required to inhibit N-methyl D-aspartate induced seizures in mice. In kind it is functional.
The species entered for data set [4] is Rattus norvegicus. Nature of the data set: Area under the concentration-time curve from time zero to infinity in whole brain homogenates was determined. In kind it is ADME, organism-based. The conditions noted are these: in vivo.
The target of data set [5] is Glutamate receptor ionotropic, kainate. The data set can be described thus: Binding affinity for non-NMDA receptor determined by displacement of [3H]- KA (kainic acid) in rat cortical membranes. In kind it is cell membranes, Membrane.
Data set [6] concerns Rattus norvegicus. Nature of the data set: Percent of reduction of cortical infarct volume at dose of 20 mg/kg bolus +20 mg/kg/hr continuous infusion was determined in normotensive rats. In kind it is functional.
For data set [7], the target named is Glutamate receptor ionotropic, AMPA (Rattus norvegicus, UniProt P19490+P19491+P19492+P19493). The data set can be described thus: Binding affinity for non-NMDA receptor determined by displacement of [3H]- AMPA (2-amino-(3-(3-hydroxy-5-methylisoxazole-4-yl)propanoic acid)) in rat cortical membranes. In kind it is cell membranes, Membrane.
The target in data set [8] is T1, Glutamate receptor ionotropic, NMDA 1. The data set can be described thus: Binding affinity for glycine site of N-methyl-D-aspartate glutamate receptor determined by displacement of [3H]- DCKA (5,7-dichlorokynurenic acid) in rat cortical membranes. In kind it is cell membranes, Membrane.
A short description of data set [9]: Binding affinity for glutamate site of N-methyl-D-aspartate glutamate receptor determined by displacement of [3H]- glutamate in rat cortical membranes. In kind it is cell membranes, Membrane.
The target in data set [10] is T1, Glutamate receptor ionotropic, NMDA 1. The data set can be described thus: Binding affinity for glycine site of N-methyl-D-aspartate glutamate receptor determined by displacement of [3H]- glycine in rat cortical membranes. In kind it is cell membranes, Membrane.

Where only a bound is given, the exact number is not on record here.

In the case of `O=C(O)Cc1ccccc1NC(=O)C[C@@H]1CCc2cc(Cl)cc3[nH]c(C(=O)O)c1c23`, the IC50 in data set [1] is 7.6 nM. The No. of protected/tested in [2] was found to be 3.

Compound `NCc1ccc(NC(=O)C[C@@H]2CCc3cc(Cl)cc4[nH]c(C(=O)O)c2c34)cc1` yielded a 50% inhibitory concentration (IC50) in data set [1] of 18 nM. The compound also gave a No. of protected/tested in data set [2] of 3.

In turn, `C[C@H](C(=O)O)c1cc(CN)ccc1NC(=O)C[C@@H]1CCc2cc(Cl)cc3[nH]c(C(=O)O)c1c23` displayed an IC50 in [1] of 29 nM. Besides, the No. of protected/tested in data set [2] stood at 4. For the same compound, in data set [3], the 50% effect level (ED50) was put at a dose of 3.7 mg/kg.

In turn, `C[C@@H](C(=O)O)c1cc(CN)ccc1NC(=O)C[C@@H]1CCc2cc(Cl)cc3[nH]c(C(=O)O)c1c23` came in with an AUC in data set [4] of 10 µg·min/g. Also, in data set [1], the IC50 was found to be 2.7 nM. The Ki in data set [5] was more than 10000 nM; in data set [7] it was more than 10000 nM; in data set [8] it was 1 nM; in [9] it was more than 10000 nM; in data set [10] it was 11 nM. This compound showed a Cortical infarct volume in [6] of 84%. The compound also returned a No. of protected/tested in [2] of 5. In addition, it took a dose of 2.3 mg/kg to reach the 50% effect level in [3] (ED50).

Take `NCc1ccc(NC(=O)C[C@@H]2CCc3cc(Cl)cc4[nH]c(C(=O)O)c2c34)c(CC(=O)O)c1`: the 50% inhibitory concentration (IC50) in data set [1] was 1.5 nM. The Cortical infarct volume in [6] was 30%. In [2], this compound returned a No. of protected/tested of 5. Moreover, in [3], the 50% effect level (ED50) was put at a dose of 1.8 mg/kg.

`O=C(C[C@@H]1CCc2cc(Cl)cc3[nH]c(C(=O)O)c1c23)Nc1ccccc1` came in with an IC50 in data set [1] of 19 nM. The compound further had a No. of protected/tested in data set [2] of 3.

In data set [4], `NCc1ccc(NC(=O)C[C@@H]2CCc3cc(Cl)cc4[nH]c(=O)c(=O)n2c34)c(OCC(=O)O)c1` registered an AUC of 3.3 µg·min/g. Besides, in data set [1], the IC50 is 1 nM. Besides, the Cortical infarct volume in data set [6] came out at 50%. Also, the No. of protected/tested in [2] is recorded as 10. The ED50 in [3] worked out at 0.41 mg/kg.

In the case of `NCc1ccc(NC(=O)C[C@@H]2CCc3cc(Cl)cc4[nH]c(C(=O)O)c2c34)c(OCC(=O)O)c1` (stereo in doubt; 3a), the IC50 in data set [1] was 1.2 nM. Besides, the No. of protected/tested in [2] is 2. In data set [3], it took a dose of 5 mg/kg to reach the 50% effect level (ED50).

As to `NCc1ccc(NC(=O)C[C@@H]2CCc3cc(Cl)cc4[nH]c(C(=O)O)c2c34)c(OCC(=O)O)c1` (stereo in doubt; 3b), in data set [1], the IC50 is 33 nM.

The values are drawn from ChEMBL document CHEMBL1145975, “Tricyclic indole-2-carboxylic acids: highly in vivo active and selective antagonists for the glycine binding site of the NMDA receptor” (J Med Chem, 2003).
